The values below come from patent US20250221988A1 (Cullgen (Shanghai), Inc., priority 2022, published 2025).

Like-named read-outs stand apart in the source and are kept apart here.

The subject of one experiment is MV4;11 cells. The experiment is described as follows: Cell viability assay (CellTiter-Glo) in MV4;11 cells. Type of experiment: cell-based. The conditions noted are these: MV4;11 cells, three days, read-out: MV4. Put shortly: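 After three days' exposure to 3-fold serial compound dilutions (8 or 12 points), viability of cells seeded at 5000/well is read by CellTiter-Glo. Runs were done alone or combined with gilteritinib at 10 nM (MV4;11) or 20 nM (MOLM-13); IC50 from nonlinear regression.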

The subject of a further experiment is MOLM-13 cells. Nature of the experiment: Cell viability assay (CellTiter-Glo) in MOLM-13 cells. Type of experiment: cell-based. The conditions noted are these: MOLM-13 cells, three days.
Where [1] appears, read: Homo sapiens, MV4-11, 72 h, compound alone, 11 IC50.
Where [2] appears, read: with 10 nM gilteritinib, 11 IC50 (nM) + 10 nM Gil.
Setting [3] is: Homo sapiens, 72 h, compound alone, read-out: MOLM-13 IC50.
Where [4] appears, read: with gilteritinib, read-out: MOLM-13 IC50 (nM) + 10 nM Gil.

On to `O=C1CCC(N2C(=O)c3ccc(NC[C@H]4C[C@H](n5nc(C6CC6)c6cccc(N7CCNCC7)c65)C4)cc3C2=O)C(=O)N1` (stereo partly drawn) [GS-765, 5-(((Trans-3-(3-cyclopropyl-7-(piperazin-1-yl)-1H-indazol-1-yl)cyclobutyl)methyl)amino)-2-(2,6-dioxopiperidin-3-yl)isoindoline-1,3-dione], for which the IC50 is over 1000 nM in the experiment with MV4;11 cells (setting [1]), 100 to 1000 nM in the experiment on MV4;11 cells (setting [2]), over 1000 nM in the experiment on MOLM-13 cells (setting [3]) and 100 to 1000 nM in the experiment on MOLM-13 cells (setting [4]).
For `Cn1ncc2cnc(-c3cn([C@H]4C[C@H](CCc5ccc6c(c5)CN([C@@H]5CCC(=O)NC5=O)C6=O)C4)nc3C3CC3)cc21` [GS-766, 3-(5-(2-(Trans-3-(3-cyclopropyl-4-(1-methyl-1H-pyrazolo[4,3-c]pyridin-6-yl)-1H-pyrazol-1-yl)cyclobutyl)ethyl)-1-oxoisoindolin-2-yl)piperidine-2,6-dione], the IC50 with MV4;11 cells (setting [1]), with MV4;11 cells (setting [2]), in the experiment with MOLM-13 cells (setting [3]) and with MOLM-13 cells (setting [4]) was under 10 nM each time.
`Cn1ncc2cnc(-c3cn([C@H]4C[C@H](CCc5ccc6c(c5)C(=O)N(C5CCC(=O)NC5=O)C6=O)C4)nc3C3CC3)cc21` (stereo partly drawn) [GS-767, 5-(2-(Trans-3-(3-cyclopropyl-4-(1-methyl-1H-pyrazolo[4,3-c]pyridin-6-yl)-1H-pyrazol-1-yl)cyclobutyl)ethyl)-2-(2,6-dioxopiperidin-3-yl)isoindoline-1,3-dione]: the IC50 with MV4;11 cells (setting [1]) was in the range of 100 to 1000 nM; in the experiment with MV4;11 cells (setting [2]), 10 to 100 nM; in the experiment on MOLM-13 cells (setting [3]), 100 to 1000 nM; in the experiment on MOLM-13 cells (setting [4]), 10 to 100 nM.
For the compound `Cn1ccc2c(-c3cn([C@H]4C[C@H](CNc5ccc6c(c5)C(=O)N(C5CCC(=O)NC5=O)C6=O)C4)nc3C3CC3)ncc(F)c21` (stereo partly drawn) [GS-768, 5-(((Trans-3-(3-cyclopropyl-4-(7-fluoro-1-methyl-1H-pyrrolo[3,2-c]pyridin-4-yl)-1H-pyrazol-1-yl)cyclobutyl)methyl)amino)-2-(2,6-dioxopiperidin-3-yl)isoindoline-1,3-dione], the IC50 with MV4;11 cells (setting [1]), with MV4;11 cells (setting [2]), in the experiment on MOLM-13 cells (setting [3]) and in the experiment with MOLM-13 cells (setting [4]) was under 10 nM in each case.
As to `CC(C)n1ccc2c(-c3cn([C@H]4C[C@H](CNc5ccc6c(c5)C(=O)N(C5CCC(=O)NC5=O)C6=O)C4)nc3C3CC3)ncc(F)c21` (stereo partly drawn) [GS-769, 5-(((Trans-3-(3-cyclopropyl-4-(7-fluoro-1-isopropyl-1H-pyrrolo[3,2-c]pyridin-4-yl)-1H-pyrazol-1-yl)cyclobutyl)methyl)amino)-2-(2,6-dioxopiperidin-3-yl)isoindoline-1,3-dione], the IC50 with MV4;11 cells (setting [1]), with MV4;11 cells (setting [2]), in the experiment with MOLM-13 cells (setting [3]) and in the experiment on MOLM-13 cells (setting [4]) was under 10 nM in each case.
As for `CN1CCC(n2ncc3cnc(-c4cn([C@H]5C[C@H](CNc6ccc7c(c6)C(=O)N(C6CCC(=O)NC6=O)C7=O)C5)nc4C4CC4)cc32)CC1` (stereo partly drawn) [GS-770, 5-(((Trans-3-(3-cyclopropyl-4-(1-(1-methylpiperidin-4-yl)-1H-pyrazolo[4,3-c]pyridin-6-yl)-1H-pyrazol-1-yl)cyclobutyl)methyl)amino)-2-(2,6-dioxopiperidin-3-yl)isoindoline-1,3-dione], the IC50 with MV4;11 cells (setting [1]), with MV4;11 cells (setting [2]), in the experiment with MOLM-13 cells (setting [3]) and with MOLM-13 cells (setting [4]) was 10 to 100 nM each time.
With `O=C1CCC(N2C(=O)c3ccc(NC[C@H]4C[C@H](n5cc(-c6ncccc6[C@H]6C[C@@H](O)C6)c(C6CC6)n5)C4)cc3C2=O)C(=O)N1` (some centres unmarked) [GS-771], the IC50 with MV4;11 cells (setting [1]) was 10 to 100 nM; in the experiment on MV4;11 cells (setting [2]), under 10 nM; with MOLM-13 cells (setting [3]), 10 to 100 nM; in the experiment on MOLM-13 cells (setting [4]), 10 to 100 nM.
On to `O=C1CCC(N2C(=O)c3ccc(NC[C@H]4C[C@H](n5cc(-c6ncccc6[C@H]6C[C@H](O)C6)c(C6CC6)n5)C4)cc3C2=O)C(=O)N1` (some centres unmarked) [GS-772], for which the IC50 was 10 to 100 nM in the experiment on MV4;11 cells (setting [1]), 10 to 100 nM in the experiment with MV4;11 cells (setting [2]), 10 to 100 nM in the experiment on MOLM-13 cells (setting [3]) and under 10 nM with MOLM-13 cells (setting [4]).
Turning to `Cn1cc(Nc2cn([C@H]3C[C@H](CNc4ccc5c(c4)C(=O)N(C4CCC(=O)NC4=O)C5=O)C3)nc2C2CC2)cn1` (stereo partly drawn) [GS-773, 5-(((Trans-3-(3-cyclopropyl-4-((1-methyl-1H-pyrazol-4-yl)amino)-1H-pyrazol-1-yl)cyclobutyl)methyl)amino)-2-(2,6-dioxopiperidin-3-yl)isoindoline-1,3-dione], the IC50 was under 10 nM with MV4;11 cells (setting [1]), under 10 nM in the experiment on MV4;11 cells (setting [2]), 10 to 100 nM in the experiment on MOLM-13 cells (setting [3]) and under 10 nM in the experiment with MOLM-13 cells (setting [4]).
As to `Cc1cccc(-c2cn(C3CC4(CC(C(=O)NCc5ccc6c(c5)C(=O)N(C5CCC(=O)NC5=O)C6=O)C4)C3)nc2C2CC2)n1` (centres unmarked) [GS-774, 6-(3-Cyclopropyl-4-(6-methylpyridin-2-yl)-1H-pyrazol-1-yl)-N-((2-(2,6-dioxopiperidin-3-yl)-1,3-dioxoisoindolin-5-yl)methyl)spiro[3.3]heptane-2-carboxamide], the IC50 with MV4;11 cells (setting [1]) is 100 to 1000 nM; in the experiment with MV4;11 cells (setting [2]), 10 to 100 nM; in the experiment on MOLM-13 cells (setting [3]), over 1000 nM; in the experiment on MOLM-13 cells (setting [4]), 100 to 1000 nM.
Regarding `Cc1cccc(-c2cn(C3CC4(CC(CNc5ccc6c(c5)C(=O)N(C5CCC(=O)NC5=O)C6=O)C4)C3)nc2C2CC2)n1` (centres unmarked) [GS-775], the IC50 in the experiment with MV4;11 cells (setting [1]) was 100 to 1000 nM; in the experiment with MV4;11 cells (setting [2]), 100 to 1000 nM; with MOLM-13 cells (setting [3]) it was over 1000 nM; in the experiment with MOLM-13 cells (setting [4]) it was 100 to 1000 nM.
`N[C@H]1C[C@H](n2ncc3cnc(-c4cn([C@H]5C[C@H](CNc6ccc7c(c6)C(=O)N(C6CCC(=O)NC6=O)C7=O)C5)nc4C4CC4)cc32)C1` (stereo partly drawn) [GS-776, 5-(((Trans-3-(4-(1-(trans-3-aminocyclobutyl)-1H-pyrazolo[4,3-c]pyridin-6-yl)-3-cyclopropyl-1H-pyrazol-1-yl)cyclobutyl)methyl)amino)-2-(2,6-dioxopiperidin-3-yl)isoindoline-1,3-dione]: the IC50 was 10 to 100 nM in the experiment with MV4;11 cells (setting [1]), under 10 nM in the experiment with MV4;11 cells (setting [2]), 10 to 100 nM with MOLM-13 cells (setting [3]) and under 10 nM in the experiment on MOLM-13 cells (setting [4]).
With `O=C1CCC(N2C(=O)c3ccc(NC[C@H]4C[C@H](n5cc(-n6ncc7cccnc76)c(C6CC6)n5)C4)cc3C2=O)C(=O)N1` (stereo partly drawn) [GS-777, 5-(((Trans-3-(3-cyclopropyl-4-(1H-pyrazolo[3,4-b]pyridin-1-yl)-1H-pyrazol-1-yl)cyclobutyl)methyl)amino)-2-(2,6-dioxopiperidin-3-yl)isoindoline-1,3-dione], the IC50 in the experiment on MV4;11 cells (setting [1]) is under 10 nM; in the experiment on MV4;11 cells (setting [2]) it was under 10 nM; in the experiment on MOLM-13 cells (setting [3]) it was 10 to 100 nM; in the experiment on MOLM-13 cells (setting [4]), under 10 nM.
With `N[C@H]1C[C@@H](n2ncc3cnc(-c4cn([C@H]5C[C@H](CNc6ccc7c(c6)C(=O)N(C6CCC(=O)NC6=O)C7=O)C5)nc4C4CC4)cc32)C1` (stereo partly drawn) [GS-778, 5-(((Trans-3-(4-(1-(cis-3-aminocyclobutyl)-1H-pyrazolo[4,3-c]pyridin-6-yl)-3-cyclopropyl-1H-pyrazol-1-yl)cyclobutyl)methyl)amino)-2-(2,6-dioxopiperidin-3-yl)isoindoline-1,3-dione], the IC50 with MV4;11 cells (setting [1]) is 10 to 100 nM; with MV4;11 cells (setting [2]), under 10 nM; in the experiment with MOLM-13 cells (setting [3]), 10 to 100 nM; in the experiment with MOLM-13 cells (setting [4]), under 10 nM.
